How the values were obtained:
[1] = organism: Cavia porcellus; test: Concentration of compound required for evaluating efficacy in guinea pig ileum (GPI); type: functional, organism-based
[2] = organism: Mus musculus; test: Concentration of compound required for evaluating efficacy in mouse vas deferens (MVD); type: functional, organism-based
[3] = molecular target: Mu-type opioid receptor (Homo sapiens, UniProt P35372); test: In vitro binding affinity towards mu opioid receptors was determined using [3H][p-Cl-Phe]- 4] DPDPE or [3H]deltorphin II
[4] = molecular target: Delta-type opioid receptor (Homo sapiens, UniProt P41143); test: In vitro binding affinity towards Opioid receptor delta 1 was determined using […]
Delta-type opioid receptor, sequence (P41143 whole entry): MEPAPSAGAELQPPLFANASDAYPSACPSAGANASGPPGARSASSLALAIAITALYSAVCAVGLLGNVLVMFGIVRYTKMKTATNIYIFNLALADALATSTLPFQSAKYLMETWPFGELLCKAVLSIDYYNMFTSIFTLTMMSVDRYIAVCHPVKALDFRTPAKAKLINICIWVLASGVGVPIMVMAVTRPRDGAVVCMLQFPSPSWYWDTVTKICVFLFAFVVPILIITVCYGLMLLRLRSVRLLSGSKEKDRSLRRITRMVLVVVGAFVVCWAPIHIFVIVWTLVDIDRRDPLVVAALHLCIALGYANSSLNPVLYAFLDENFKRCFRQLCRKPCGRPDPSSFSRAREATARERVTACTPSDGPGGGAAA

Mu-type opioid receptor, sequence (P35372 whole entry): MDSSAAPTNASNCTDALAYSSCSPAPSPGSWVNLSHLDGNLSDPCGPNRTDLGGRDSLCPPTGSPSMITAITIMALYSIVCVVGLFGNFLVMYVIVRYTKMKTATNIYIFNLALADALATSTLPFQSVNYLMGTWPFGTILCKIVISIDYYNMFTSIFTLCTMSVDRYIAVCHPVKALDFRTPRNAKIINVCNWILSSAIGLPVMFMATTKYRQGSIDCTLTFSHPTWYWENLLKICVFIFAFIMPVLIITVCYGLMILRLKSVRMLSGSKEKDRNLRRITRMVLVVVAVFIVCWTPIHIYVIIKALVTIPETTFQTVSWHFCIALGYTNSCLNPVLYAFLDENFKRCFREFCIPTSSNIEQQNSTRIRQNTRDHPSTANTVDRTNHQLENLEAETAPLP

SMILES | EC50 [1] | EC50 [2] | IC50 [3] | IC50 [4]
CCCC[C@@H](N)C(=O)NNC(=O)[C@H](Cc1ccccc1)NC(=O)CNC(=O)[C@@H](C)NC(=O)[C@@H](N)Cc1ccc(O)cc1 | 5.2 nM | 95 nM | 5.9 nM | 71 nM
C[C@@H](NC(=O)[C@@H](N)Cc1ccc(O)cc1)C(=O)NCC(=O)N[C@@H](Cc1c[nH]c2ccccc12)C(=O)NNC(=O)[C@H](N)Cc1ccccc1 | 26 nM | 130 nM | 8.3 nM | 46 nM
CCCC[C@H](N)C(=O)NNC(=O)[C@H](Cc1ccccc1)NC(=O)CNC(=O)[C@@H](C)NC(=O)[C@@H](N)Cc1ccc(O)cc1 | 24 nM | 20 nM | 1.3 nM | 21 nM
C[C@@H](NC(=O)[C@@H](N)Cc1ccc(O)cc1)C(=O)NCC(=O)N[C@@H](Cc1ccccc1)C(=O)NNC(=O)[C@H](N)Cc1ccccc1 | 2.4 nM | 27 nM | 0.74 nM | 15 nM
C[C@@H](NC(=O)[C@@H](N)Cc1ccc(O)cc1)C(=O)NCC(=O)N[C@@H](Cc1ccccc1)C(=O)NNC(=O)[C@H](N)Cc1ccc(O)cc1 | 15 nM | 45 nM | 1.6 nM | 16 nM
C[C@@H](NC(=O)[C@@H](N)Cc1ccc(O)cc1)C(=O)NCC(=O)N[C@@H](Cc1ccccc1)C(=O)NN | 90 nM | 290 nM | 4.7 nM | 230 nM
C[C@@H](NC(=O)[C@@H](N)Cc1ccc(O)cc1)C(=O)NCC(=O)N[C@@H](Cc1ccccc1)C(=O)NNC(=O)[C@H](N)Cc1c[nH]c2ccccc12 | 7.1 nM | 15 nM | 2 nM | 29 nM
C[C@@H](NC(=O)[C@@H](N)Cc1ccc(O)cc1)C(=O)NCC(=O)N[C@@H](Cc1ccccc1)C(=O)NNC(=O)[C@@H](N)Cc1ccccc1 | 9.8 nM | 32 nM | 0.88 nM | 30 nM
C[C@@H](NC(=O)[C@@H](N)Cc1ccc(O)cc1)C(=O)NCC(=O)N[C@@H](Cc1ccccc1)C(=O)NNC(=O)[C@H](Cc1ccccc1)NC(=O)CNC(=O)[C@@H](C)NC(=O)[C@@H](N)Cc1ccc(O)cc1 [BIPHALIN] | 8.8 nM | 27 nM | 1.4 nM | –
